Measurements published in EP0947200B1, “Compositions comprising Cetrorelix acetate for the treatment of female infertility and gonadal protection” (Zentaris IVF GmbH, priority 1993, dated 2015).

Assays:
[1] = format: physicochemical
Procedure: Gemäß vorliegender Anmeldung soll der Wirkstoff subcutan in einer Dosis von 0,1 bis 20 mg appliziert werden können. Die wässrigen Lösungen des Dekapeptids sind instabil, eine Autoklavierung im Endbehälter ist nicht möglich. […] Um eine injizierbare Lösung zu erhalten, war daher die Entwicklung eines Lyophilisats erforderlich. Allerdings ist die Menge des Wirkstoffes in der zu lyophilisierenden Lösung so gering, dass bei niedrigen Wirkstoffkonzentrationen nur ein lockerer Flaum an der Glaswand der Ampulle nach der Trocknung der hilfsstofffreien Lösung resultiert, der mit dem zur Sterilisierung benutzten Wasserdampfstrom aus dem Vial ausgetragen wird. Es ist also erforderlich, einen Gerüstbildner einzusetzen, der einen stabilen Kuchen bildet. Bei hohen Konzentrationen kann auf diesen Hilfsstoff verzichtet werden. Als Gerüstbildner kommen folgende Hilfsstoffe infrage: Hexite, insbesondere Mannit, Glucit, Sorbit, wie D-Sorbit, Dulcit, Allit, Altrit (zum Beispiel D- und L-Altrit), Idit (zum Beispiel D- und L-Idit), deren optisch aktive Formen (D- beziehungsweise L-Formen) sowie die entsprechenden Racemate. Insbesondere wird Mannit, wie D-Mannit, L-Mannit, DL-Mannit, Sorbit und/oder Dulcit verwendet, und zwar hiervon vorzugsweise D-Mannit. Als Hexit können auch Mischungen der genannten Hexite verwendet werden, zum Beispiel Mischungen von Mannit und Sorbit und/oder Dulcit. […]

[2] = test system: endogene Hormonproduktion (LH-FSH, Estradiol); format: in vivo, Patientinnen
From the text: Es hat sich nun herausgestellt, daß der Antagonist Cetrorelix gerade bei dieser Behandlung folgende Vorteile aufweist:
Um eine totale Suppression zu erreichen, genügen bei der Behandlung mit Cetrorelix eine Behandlungsdauer von 5 Tagen. […] Darüber hinaus läßt sich in der 2. Therapiephase, der Ovulationsauslösephase, HMG einsparen. Dies stellt einen nicht unbeträchtlichen Kostenvorteil dieser in-vitro-Fertilisationsbehandlung dar. Die in-vitro-Fertilisation wird beispielsweise beim Vorliegen einer Tubenanomalie eingesetzt. Für diese Therapie ist es notwendig, den Zyklus genau zu kontrollieren und den Zeitpunkt der Ovulation möglichst genau festzulegen. Bisher wurde dies nur eingeschränkt erreicht, da durch Stimulation mit HMG/HCG der präovulatorische LH-Anstieg oft zu früh auftrat oder nicht lange genug aufrechterhalten wurde. Es ist jedoch von entscheidender Bedeutung für den Behandlungserfolg, diesen verfrühten Anstieg zu verhindern, um den Befruchtungszeitpunkt genau festlegen zu können. Dadurch wird die körperliche und psychische Belastung der Patientinnen reduziert und die Kliniklogistik optimal eingesetzt. […]

[3] = Solubility and hydrolytic stability in acetic acid; format: physicochemical
From the text: Überraschenderweise stellte sich nun heraus, daß man Cetrorelix in 30 %iger VolumenNolumen Essigsäure gut lösen kann. Diese Lösung wird anschließend auf eine Endkonzentration von 3 % Cetrorelix mit Wasser für Injektionszwecke aufgefüllt und Mannit hinzugegeben. […] Lösungen, die nach dieser Methode hergestellt werden, […]

Cetrorelix
Stabilität der wässrigen Lösungen [1]: instabil
Verhalten unter arzneibuchüblicher Sterilisation ([1]; pharmacopoeial sterilisation (autoclaving in final container)): neigt unter arzneibuchüblicher Sterilisation zur Zersetzung
Behandlungsdauer, um eine totale Suppression zu erreichen ([2]; female patients, treatment of infertility): 5 Tagen
Hyperstimulationssyndrom ([2]; in vivo): kann nicht auftreten
Hydrolyse der endständigen Amidgruppe ([3]; acid medium (acetic acid solution)): nicht festgestellt
Löslichkeit ([3]; in 30 % (volume/volume) acetic acid): gut lösen
